One data set has as its system B. subtilis. To be noted: duplicate experiments. The procedure: (§1) Determining the MIC value is a standard technique well known to the skilled person, in particular the MIC value can be measured using method M07-A9 (CLSI standard, January 2012, Vol. 32, No. 2, “Methods for Dilution Antimicrobial Susceptibility Tests for Bacteria That Grow Aerobically”).
(§2) Different microorganisms (from glycerol stock) were plated out on blood agar and incubated at 37° C. for 24 hours. A colony was selected and 2×5 mL of TSB was inoculated. The samples and a sterile control were cultured for 16-20 hours at 37° C. Comparative compound B is nisin acting as a control. […] Comparative compounds A, D and E are also control compounds not part of the present invention.
(§3) The overnight cultures were diluted to 0.5×10^6 CFU in TSB. 50 μL of the bacterial solution was added to each well and the plates were sealed with an adhesive membrane and incubated at 37° C. for 16 hours. The next day, the plates were visually inspected for bacterial growth.

Another data set relates to E. coli. The note with it: duplicate experiments. The procedure: as §1, §2, §3
In the next data set the test system is S. aureus. To be noted: duplicate experiments. The method, then: as §1, §2, §3
A further data set has as its system M. luteus. The data set is classed as cell-based. To be noted: duplicate experiments. The procedure:
as §1
(§4) Different microorganisms (from glycerol stock) were plated out on blood agar and incubated at 37° C. for 24 hours. A colony was selected and 2×5 mL of TSB was inoculated. The samples and a sterile control were cultured for 16-20 hours at 37° C. Comparative compound B is nisin acting as a control. Comparative compound C is vancomycin, also acting as a control. Comparative compounds A, D and E are also control compounds not part of the present invention.
as §3

The test system of a further data set is VRE 155. The data set is classed as cell-based. The note with it: duplicate experiments. The method, then: as §1, §4, §3
The test system of the next data set is MRSA USA300. It counts as cell-based, Staphylococcus aureus. The note with it: duplicate experiments. The method, then:
as §1, §4, §3

A further data set concerns MRSA WKZ2. It counts as cell-based, Staphylococcus aureus. The note with it: duplicate experiments. The procedure:
as §1, §4, §3

A further data set in a line: Serum stability. It counts as in vitro ADME. The note with it: human serum, 37° C., after 24 hours; read-out: stability in human serum, remained intact. The method, then:
2 mg/mL peptide solutions were prepared in 26% DMSO in MilliQ. Duplicate samples were prepared with […] peptide solution and […] human serum, making the final DMSO concentration 2%. The samples were incubated at 37° C., and samples were taken at t=0, 1, 2, 4 and 24 hours as follows: to 100 μL serum solution, 200 μL MeOH (containing 0.075 mg/mL ethylparaben as an internal standard) was added to precipitate the proteins. The sample was vortexed briefly and allowed to stand for 10 min at RT. The samples were then centrifuged at 13,000 rpm for 5 min, and the supernatant was taken and stored at −20° C. until analysis. Each sample was analyzed by HPLC on a C4 column. The peaks were integrated and normalized to the internal standard.

The subject of the next data set is erythrocytes. As to the kind of experiment: Hemolysis assay. To be noted: human erythrocytes, 1 h, up to the highest concentration tested (64 μg/mL). The method, then:
Human whole blood was centrifuged at 600×g for 15 min and levels of plasma and hematocrit were marked on the tube. Plasma was removed and the erythrocytes washed 3× with PBS (centrifuging at 600×g for 15 mins). After discarding the supernatant, the packed cells were stored on ice. 100 μL of the peptides (128 μg/mL in PBS, 2% DMSO) as well as a control solution comprised of 2% DMSO in PBS were added to the top row of a polypropylene, round-bottom 96 well plate and 50 μL of PBS to the rest of the wells. The peptides and the DMSO control solutions were then diluted serially down the rows. 200 μL of the packed cells were added to PBS (10 mL) and 50 μL of this suspension was added to each well. A column with DI water containing 0.1% Triton X-100 was used as the 100% lysis control, and the column containing the serially-diluted PBS (1.0% DMSO) control served as the 0% lysis reference. The cells were incubated at 37° C. for 1 h. After incubation the plates were centrifuged (800×g, 5 min) and 25 μL of the supernatant was added to 100 μL DI water in a flat-bottom plate (polystyrene). The absorption at 414 nm was recorded to measure the amount of free hemoglobin.

Converted amounts (≈) assume the structure as drawn. Like-named read-outs stand apart in the source and are kept apart here.

Consider `C=C1NC(=O)[C@H]([C@@H](C)CC)NC(=O)[C@H](NC(=O)C(=CC)NC(=O)[C@@H](N)[C@@H](C)CC)CSC[C@@H](C(=O)N[C@H]2C(=O)N3CCC[C@H]3C(=O)NCC(=O)N[C@H](C(=O)N[C@@H](CCCCN)C(=O)NCCCCCCCCCCCCCC)CS[C@H]2C)NC(=O)[C@H](CC(C)C)NC1=O` [(10)], for which the “MIC values B. subtilis” value in the data set on B. subtilis was 4 µg/mL (≈ 2.97 µM). For the same compound, the “MIC values E. coli” value against E. coli was above 64 µg/mL. For the same compound, the “MIC values S. aureus” value against S. aureus was 16 µg/mL (≈ 11.9 µM). The “MIC values M. luteus” value against M. luteus lay within 1 to 2 µg/mL. Moreover, in the data set on VRE 155, the “MIC values VRE 155” value stood at 4 µg/mL (≈ 2.97 µM). Further, in the data set with MRSA USA300, the “MIC values MRSA USA300” value is 64 µg/mL (≈ 47.6 µM). In addition, in the data set on MRSA WKZ2, the “MIC values MRSA WKZ2” value stood at 32 µg/mL (≈ 23.8 µM). Also, the remaining at 24 h, 0.15 mg/mL in the data set “Serum stability” was above 50%. Further, the minimal inhibitory concentration (MIC) in the data set on thirty VRE strains (VRE strain E0013, GBR, vanA) is 4 µg/mL (≈ 2.97 µM); with thirty VRE strains (VRE strain E0072, NLD, vanA), 2 µg/mL (≈ 1.49 µM); against thirty VRE strains (VRE strain E0300, USA, vanA), 8 to 16 µg/mL; with thirty VRE strains (VRE strain E0321, FRA, vanA), 2 µg/mL (≈ 1.49 µM); in the data set with thirty VRE strains (VRE strain E0333, ISR, vanA), 4 µg/mL (≈ 2.97 µM); in the data set with thirty VRE strains (VRE strain E0338, ITA, vanA) it was 4 µg/mL (≈ 2.97 µM). The MIC amounted to 4 µg/mL (≈ 2.97 µM) with thirty VRE strains (VRE strain E0341, GBR, vanA); 8 µg/mL (≈ 5.94 µM) in the data set with thirty VRE strains (VRE strain E0506, AUS, vanA); 4 µg/mL (≈ 2.97 µM) in the data set on thirty VRE strains (VRE strain E0745, NLD, vanA); 4 µg/mL (≈ 2.97 µM) with thirty VRE strains (VRE strain E1130, USA, vanA); 4 µg/mL (≈ 2.97 µM) against thirty VRE strains (VRE strain E1441, GRC, vanA); 4 µg/mL (≈ 2.97 µM) against thirty VRE strains (VRE strain E1679, BRA, vanA). For the same compound, the MIC in the data set with thirty VRE strains (VRE strain E1763, BEL, vanA) is 8 µg/mL (≈ 5.94 µM); with thirty VRE strains (VRE strain E2297, USA, vanA) it was 2 µg/mL (≈ 1.49 µM); against thirty VRE strains (VRE strain E2359, SGP, vanB) it was 2 µg/mL (≈ 1.49 µM); with thirty VRE strains (VRE strain E2365, HUN, vanB), 1 µg/mL (≈ 0.743 µM); in the data set on thirty VRE strains (VRE strain E2373, SRB, vanA) it was 4 µg/mL (≈ 2.97 µM); against thirty VRE strains (VRE strain E6016, LVA, vanA) it was 2 to 4 µg/mL. Further, the minimal inhibitory concentration (MIC) against thirty VRE strains (VRE strain E7312, NLD, vanA) turned out to be 2 µg/mL (≈ 1.49 µM); against thirty VRE strains (VRE strain E7314, NLD, vanB), 4 µg/mL (≈ 2.97 µM); with thirty VRE strains (VRE strain E7319, NLD, vanA), 2 µg/mL (≈ 1.49 µM); against thirty VRE strains (VRE strain E7329, NLD, vanA) it was 2 µg/mL (≈ 1.49 µM); against thirty VRE strains (VRE strain E7401, NLD, vanB), 4 µg/mL (≈ 2.97 µM); with thirty VRE strains (VRE strain E7403, NLD, vanB), 1 µg/mL (≈ 0.743 µM). In addition, the MIC against thirty VRE strains (VRE strain E7413, NLD, vanA) was 4 µg/mL (≈ 2.97 µM); against thirty VRE strains (VRE strain E7424, NLD, vanB) it was 1 to 2 µg/mL; against thirty VRE strains (VRE strain E7464, NLD, vanB), 4 µg/mL (≈ 2.97 µM); in the data set on thirty VRE strains (VRE strain E8218, NLD, vanB), 2 µg/mL (≈ 1.49 µM); with thirty VRE strains (VRE strain E8235, NLD, vanB) it was 4 µg/mL (≈ 2.97 µM); in the data set on thirty VRE strains (VRE strain E8237, NLD, vanA) it was 8 µg/mL (≈ 5.94 µM).

As for `C=C1NC(=O)[C@H]([C@@H](C)CC)NC(=O)[C@H](NC(=O)C(=CC)NC(=O)[C@@H](N)[C@@H](C)CC)CSC[C@@H](C(=O)N[C@H]2C(=O)N3CCC[C@H]3C(=O)NCC(=O)N[C@H](C(=O)N[C@@H](CCCCN)C(=O)NC/C=C(\C)CC/C=C(\C)CCC=C(C)C)CS[C@H]2C)NC(=O)[C@H](CC(C)C)NC1=O` [(12)], the “MIC values B. subtilis” value against B. subtilis is 4 µg/mL (≈ 2.95 µM). Also, in the data set on E. coli, the “MIC values E. coli” value is above 64 µg/mL. Moreover, the “MIC values S. aureus” value against S. aureus came to 8 µg/mL (≈ 5.91 µM). Further, the “MIC values M. luteus” value against M. luteus is 2 µg/mL (≈ 1.48 µM). Besides, the “MIC values VRE 155” value in the data set with VRE 155 is 8 µg/mL (≈ 5.91 µM). In the data set on MRSA USA300, the “MIC values MRSA USA300” value came to 16 µg/mL (≈ 11.8 µM). In addition, the “MIC values MRSA WKZ2” value against MRSA WKZ2 was 16 µg/mL (≈ 11.8 µM). Also, in “Serum stability”, the remaining at 24 h, 0.15 mg/mL is above 50%.

Take `C=C1NC(=O)[C@H]([C@@H](C)CC)NC(=O)[C@H](NC(=O)C(=CC)NC(=O)[C@@H](N)[C@@H](C)CC)CSC[C@@H](C(=O)N[C@H]2C(=O)N3CCC[C@H]3C(=O)NCC(=O)N[C@H](C(=O)N[C@@H](CCCCN)C(=O)O)CS[C@H]2C)NC(=O)[C@H](CC(C)C)NC1=O` [Compound A, nisin [1-12], reference compound]: the “MIC values B. subtilis” value with B. subtilis was above 128 µg/mL. Also, the “MIC values E. coli” value against E. coli was above 128 µg/mL. Further, the “MIC values S. aureus” value with S. aureus was above 128 µg/mL. Further, the “MIC values M. luteus” value against M. luteus lay within 8 to 16 µg/mL. The “MIC values VRE 155” value with VRE 155 is above 128 µg/mL. In addition, the “MIC values MRSA USA300” value with MRSA USA300 was above 128 µg/mL. For the same compound, in the data set on MRSA WKZ2, the “MIC values MRSA WKZ2” value is above 128 µg/mL.

Consider `C=C1NC(=O)[C@H]([C@@H](C)CC)NC(=O)[C@H](NC(=O)C(=CC)NC(=O)[C@@H](N)[C@@H](C)CC)CSC[C@@H](C(=O)N[C@H]2C(=O)N3CCC[C@H]3C(=O)NCC(=O)N[C@H](C(=O)N[C@@H](CCCCN)C(=O)NCCCCCCCCCC)CS[C@H]2C)NC(=O)[C@H](CC(C)C)NC1=O` [(6)], for which, in the data set on B. subtilis, the “MIC values B. subtilis” value lay within 4 to 8 µg/mL. Further, the “MIC values E. coli” value against E. coli is 64 µg/mL (≈ 49.6 µM). Also, the “MIC values S. aureus” value in the data set on S. aureus came out at 16 µg/mL (≈ 12.4 µM). Moreover, in the data set on M. luteus, the “MIC values M. luteus” value was determined as 2 µg/mL (≈ 1.55 µM). Besides, the “MIC values VRE 155” value in the data set on VRE 155 came out at 8 µg/mL (≈ 6.2 µM). In addition, the “MIC values MRSA USA300” value against MRSA USA300 was 16 µg/mL (≈ 12.4 µM). In addition, the “MIC values MRSA WKZ2” value in the data set with MRSA WKZ2 stood at 16 µg/mL (≈ 12.4 µM). Further, in “Serum stability”, the remaining at 24 h, 0.15 mg/mL was found to be 94%.

With `C=C1NC(=O)[C@H]([C@@H](C)CC)NC(=O)[C@H](NC(=O)C(=CC)NC(=O)[C@@H](N)[C@@H](C)CC)CSC[C@@H](C(=O)N[C@H]2C(=O)N3CCC[C@H]3C(=O)NCC(=O)N[C@H](C(=O)N[C@@H](CCCCNC(C)=O)C(=O)NCCCCCCCCCCCC)CS[C@H]2C)NC(=O)[C@H](CC(C)C)NC1=O` [Compound (20)], the “MIC values VRE 155” value against VRE 155 stood at 4 µg/mL (≈ 2.94 µM). In the data set with MRSA USA300, the “MIC values MRSA USA300” value was above 64 µg/mL. Besides, in the data set on erythrocytes, the hemolysis entry was “no detectable hemolysis”.

One may read the MIC as the lowest concentration found to suppress growth. A high value points to a need for much substance.
